Measurements taken from PMC5006645 (EBioMedicine, 2016).

Tests used:
[1] = system: osteocytes from femora cortical bone; test: Gene expression in osteocytes freshly isolated from femora of treated animals; type: in vivo, C57BL/6 mice
[2] = system: trabecular and cortical bone of lean C57BL/6 mice; settings: 15 mg/kg/d, 8 weeks; previously established, ref not given; cited from earlier work
[3] = system: non-adherent bone marrow cells; test: Osteoclastogenesis assay from non-adherent bone marrow cells; type: cell-based; settings: ex vivo; 10 μM SR10171 or 1 μM rosiglitazone; M-CSF and RANKL
[4] = system: TCF/LIF/β-catenin complex; test: Top-Flash luciferase reporter in U33/γ2 cells; type: cell-based; settings: 72 h
cortical bone = test: Cortical tissue mineral density; type: in vivo, C57BL/6 mice; settings: mouse model not stated; control 954.6 ± 17.6
PPARα = biological target: T1, PPARα (Homo sapiens, UniProt Q07869)
T1 sequence (Q07869 200-468 limits assumed): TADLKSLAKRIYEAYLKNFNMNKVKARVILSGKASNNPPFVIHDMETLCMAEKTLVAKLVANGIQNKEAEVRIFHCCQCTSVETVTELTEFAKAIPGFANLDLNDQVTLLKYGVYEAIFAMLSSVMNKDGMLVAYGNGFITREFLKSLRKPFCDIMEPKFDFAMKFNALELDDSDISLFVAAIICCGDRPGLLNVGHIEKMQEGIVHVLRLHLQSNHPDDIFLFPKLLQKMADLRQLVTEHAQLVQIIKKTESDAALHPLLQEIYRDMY

[5] = Plasma levels at the end of experiments; type: in vivo, C57BL/6 mice; settings: for concentration at 4 days: C57BL/6, mouse, plasma, 5 mg/kg/d
S273pPPARγ = test: Inhibition of S273 phosphorylation of PPARγ; type: biochemical
[6] = system: trabecular and cortical bone of lean C57BL/6 mice; test: Lean mice experiment: bone mCT and histomorphometry; settings: for mineral apposition rate (MAR) and bone formation rate (BFR): proximal tibia
[7] = Glucose tolerance test in DIO mice; type: in vivo, C57BL/6 mice; settings: DIO animals, 25 mg/kg/d, 4 weeks
PPARγ = type: cell-based; settings: AD2 cells; 1 μM rosiglitazone or 5 μM SR10171 1 h, then TNF-α 50 ng/ml 1 h
marrow MSCs = test: Marrow MSC cultures: adipocyte markers and CFU-OB osteoblast differentiation; type: cell-based; settings: marrow MSC culture, 6 days; 10 μM SR10171 or 1 μM rosiglitazone
[8] = system: bone and marrow fat of DIO C57BL/6 mice; type: in vivo
[9] = Body weight of treated mice; type: in vivo, C57BL/6 mice
[10] = midshaft tibia, calcein labeling

CN(CCOc1ccc(CC2SC(=O)NC2=O)cc1)c1ccccn1 (racemic) [Rosiglitazone, (RS)-5-[4-(2-[methyl(pyridin-2-yl)amino]ethoxy)benzyl]thiazolidine-2,4-dione, reference compound]
Dkk1 expression in osteocytes of treated animals [1]: increased | Sost expression in osteocytes of treated animals [1]: unaffected | decrease of bone mass [2]: 20% | number of multi-nucleated TRAP-positive osteoclast-like cells [3]: increased | β-catenin transcriptional activity (Top-Flash) [4]: decreased | cortical tissue mineral density (TMD) (cortical bone): 954.5 ± 17.9 mg HA/cm^3 | EC50 PPARα GAL-4 (PPARα): No activity | concentration at 4 days [5]: 1670 nM | % inhibition S273pPPARγ (20 μM) (S273pPPARγ; 20 μM): 100% | increase of adipocyte number ([6]; 15 mg/kg/d, 8 weeks): 5 fold | trabecular bone mass ([6]; 15 mg/kg/d, 8 weeks): decreased | mineral apposition rate (MAR) and bone formation rate (BFR) ([6]; 15 mg/kg/d, 8 weeks): attenuated | glucose tolerance [7]: normalized | phosphorylation of S112 of PPARγ (PPARγ): alters | phosphorylation of S273 of PPARγ (PPARγ): block | basal expression of Fabp4 and Adipoq (marrow MSCs): increased

Cc1c(C)n(Cc2cccc(OC(C)(C)C(=O)O)c2)c2ccc(C(=O)N[C@@H](C)c3ccc(C(C)(C)C)cc3)cc12 [SR10171, (S)-2-(3-((5-((1-(4-(tert-butyl)phenyl)ethyl)carbamoyl)-2,3-dimethyl-1H-indol-1-yl)methyl)phenoxy)-2-methylpropanoic acid]
Dkk1 expression in osteocytes of treated animals [1]: decreased | Sost expression in osteocytes of treated animals [1]: decreased | number of multi-nucleated TRAP-positive osteoclast-like cells [3]: increased | decrease in marrow fat volume vs no drug control ([8]; 25 mg/kg/d, 4 weeks, tibia): ~5 fold | periosteal labeling, times larger than control [8, 10]: 9 fold | cortical tissue mineral density (TMD) (cortical bone): 978.6 ± 10.4 mg HA/cm^3 | concentration at 4 days [5]: 4010 nM | retention levels in plasma, higher than rosiglitazone ([5]; animals treated for 4 days): 2.5 fold | S273 phosphorylation blocking activity, lower than rosiglitazone (S273pPPARγ; relative to rosiglitazone): 50% | body weight ([9]; DIO mice maintained on HFD, 25 mg/kg/d, 4 weeks): decreased | body weight ([9]; lean animals, 15 mg/kg/d, 8 weeks): no impact | Trabecular bone mass in proximal tibia, increase vs non-treated controls ([6]; 15 mg/kg/d, 8 weeks): 26% | decrease of number of marrow adipocytes ([6]; 15 mg/kg/d, 8 weeks): 50% | periosteal labeling, times larger than control [6, 10]: 1.5 fold | mineral apposition rate (MAR) and bone formation rate (BFR) ([6]; 15 mg/kg/d, 8 weeks): increase | glucose tolerance [7]: normalized | basal expression of Fabp4 and Adipoq (marrow MSCs): decreased
